Results taken from patent US8703805B2 (Exelixis Patent Company LLC, priority 2005, dated 2014).

test system: LXRα and/or LXRβ; experiment: LXR/LXRE co-transfection assay (luciferase reporter, CV-1 cells); assay type: cell-based, human; conditions: IC50 or EC50 for LXR (LXRα and/or LXRβ, not distinguished), tested as described in Example 109, CV-1 cells
Summary of the method: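 Luciferase readout after 20 h compound exposure at 37 °C in CV-1 cells transiently expressing human LXRα or LXRβ with RXRα and an LXRE-driven reporter. Dose-response over 8 points at ½-log spacing, 4 wells each, fitted for EC50/IC50; values average ≥3 independent experiments, efficacy as % of high control.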

EC50 | Molecule
1 to 10 µM | CS(=O)(=O)c1cc(-c2ccc(-c3cc(C(F)(F)F)nn3-c3cc(Cl)ccc3Cl)s2)ccc1OCCN1CCOCC1 [Example 1259, 4-(2-{[4-{5-[1-(2,5-dichlorophenyl)-3-(trifluoromethyl)-1H-pyrazol-5-yl]-2-thienyl}-2-(methylsulfonyl)phenyl]oxy}ethyl)morpholine]
< 1 µM | Cc1cc(-c2cccc(S(C)(=O)=O)c2)cc(C)c1-n1nc(C(C)(C)O)cc1-c1ccccc1Cl [Example 146, 2-(5-(2-chlorophenyl)-1-(3,5-dimethyl-3′-(methylsulfonyl)biphenyl-4-yl)-1H-pyrazol-3-yl)propan-2-ol]
1 to 10 µM | CC(=O)Nc1cccc(-c2ccc(-c3cc(C(C)(C)O)nn3-c3ccccc3Cl)cc2)c1 [Example 1311, N-{4′-[1-(2-chlorophenyl)-3-(1-hydroxy-1-methylethyl)-1H-pyrazol-5-yl]biphenyl-3-yl}acetamide]
1 to 10 µM | CC(C)(O)c1cc(-c2ccc(-c3cccc4[nH]ccc34)cc2)n(-c2ccccc2Cl)n1 [Example 1286, 2-{1-(2-chlorophenyl)-5-[4-(1H-indol-4-yl)phenyl]-1H-pyrazol-3-yl}propan-2-ol]
1 to 10 µM | CC(C)(O)c1cc(-c2ccccc2Cl)n(-c2ccc(-c3cccc(S(C)(=O)=O)c3)cc2)n1 [Example 1217, 2-{5-(2-chlorophenyl)-1-[3′-(methylsulfonyl)biphenyl-4-yl]-1H-pyrazol-3-yl}propan-2-ol]
< 1 µM | CCc1ccccc1-n1nc(C(C)(C)O)c(Cl)c1-c1ccc(-c2cccc(S(C)(=O)=O)c2)s1 [Example 1373, 2-[4-chloro-1-(2-ethylphenyl)-5-{5-[3-(methylsulfonyl)phenyl]-2-thienyl}-1H-pyrazol-3-yl]propan-2-ol]
< 1 µM | CCC(O)c1cc(-c2ccc(-c3cccc(S(C)(=O)=O)c3)s2)n(-c2ccccc2Cl)n1 (stereo not shown) [Example 1175, 1-[1-(2-chlorophenyl)-5-{5-[3-(methylsulfonyl)phenyl]-2-thienyl}-1H-pyrazol-3-yl]propan-1-ol]
1 to 10 µM | CC(C)(O)c1nn(-c2ccccc2Cl)c(-c2ccc(-c3cccc(S(C)(=O)=O)c3)cn2)c1Cl [Example 128, 2-(4-chloro-1-(2-chlorophenyl)-5-(5-(3-(methylsulfonyl)phenyl)pyridin-2-yl)-1H-pyrazol-3-yl)propan-2-ol]
1 to 10 µM | CS(=O)(=O)c1cccc(-c2ccc(-c3cc(C(=O)NCCN4CCOCC4)nn3-c3ccccc3Cl)s2)c1 [Example 590, 1-(2-chlorophenyl)-5-{5-[3-(methylsulfonyl)phenyl]-2-thienyl}-N-(2-morpholin-4-ylmethyl)-1H-pyrazole-3-carboxamide]
< 1 µM | CC(C)(O)c1cc(-c2c(F)cccc2Cl)n(-c2ccc(-c3cccc(S(C)(=O)=O)c3)cc2Cl)n1 [Example 130, 2-(1-(3-chloro-3′-(methylsulfonyl)biphenyl-4-yl)-5-(2-chloro-6-fluorophenyl)-1H-pyrazol-3-yl)propan-2-ol]
1 to 10 µM | CC(C)(O)c1cc(-c2ccc(-c3cccc(NS(C)(=O)=O)c3)cc2)n(-c2ccccc2Cl)n1 [Example 1309, N-{4′-[1-(2-chlorophenyl)-3-(1-hydroxy-1-methylethyl)-1H-pyrazol-5-yl]biphenyl-3-yl}methanesulfonamide]
< 1 µM | CS(=O)(=O)c1cccc(-c2ccc(-c3c(Cl)c(C(=O)NCC(F)(F)F)nn3-c3cccnc3C(F)(F)F)c(Cl)c2)c1 [Example 1403, 4-chloro-5-(3-chloro-3′-(methylsulfonyl)biphenyl-4-yl)-N-(2,2,2-trifluoromethyl)-1-(2-(trifluoromethyl)pyridin-3-yl)-1H-pyrazole-3-carboxamide]
> 10 µM | 2-[1-(2-chlorophenyl)-5-{5-[3-(methylsulfonyl)phenyl]pyridin-2-yl}-1H-pyrazol-3-yl]propan-2-ol [Example 79]
